# Literature values as cited in patent EP0225409A1, “Organic amine phosphonic acid complexes for the treatment of calcific tumors” (THE DOW CHEMICAL COMPANY, priority 1985, dated 1987).
# Conditions: 24 hours after injection
smiles,measurement,value
NC(c1ccc(O)c([131I])c1)(P(=O)(O)O)P(=O)(O)O [α-amino-(3-iodo-4-hydroxybenzylidene)diphosphonate],injected dose present in the thyroid,0.1%
